Experimental data: ChEMBL document CHEMBL5696443 (Clin Cancer Res, 2016)
pIC50: −log10 of the molar value. The source made the active and inactive calls. The calls are words filed in the database; no cut-off is given here.

Legend:
[1] = target: Casein kinase I isoform delta (Homo sapiens) (UniProt P48730); assay: Inhibition of human CK1delta at 1 uM using KRRRAL[pS]VASLPGL as substrate in presence of [gamma33P]-ATP by HotSpot assay relative to control
[2] = target: Serine/threonine-protein kinase Chk2 (Homo sapiens, UniProt O96017); assay: Inhibition of human CHEK2 using KKKVSRSGLYRSPSMPENLNRPR as substrate in presence of [gamma33P]-ATP by HotSpot assay
[3] = target: MAP kinase-interacting serine/threonine-protein kinase 1 (Homo sapiens, UniProt Q9BUB5, T385D); assay: Inhibition of human MNK1 T385D mutant using MBP as substrate in presence of [gamma33P]-ATP by HotSpot assay
[4] = target: Serine/threonine-protein kinase BRSK1 (Homo sapiens, UniProt Q8TDC3); assay: Inhibition of human BRSK1 using KKKVSRSGLYRSPSMPENLNRPR as substrate in presence of [gamma33P]-ATP by HotSpot assay
[5] = target: Tyrosine-protein kinase Fgr (Homo sapiens, UniProt P09769); assay: Inhibition of human FGR using poly (Glu, Tyr)4:1 as substrate in presence of [gamma33P]-ATP by HotSpot assay
[6] = target: Serine/threonine-protein kinase TAO1 (Homo sapiens, UniProt Q7L7X3); assay: Inhibition of human TAOK1 using MBP as substrate in presence of [gamma33P]-ATP by HotSpot assay
[7] = target: cGMP-dependent protein kinase 1 (Homo sapiens, UniProt Q13976); assay: Inhibition of human PRKG1 using LRRASLG as substrate in presence of [gamma33P]-ATP by HotSpot assay
[8] = target: Tyrosine-protein kinase ABL2 (Homo sapiens) (UniProt P42684); assay: Inhibition of human ABL2 at 1 uM using EAIYAAPFAKKK as substrate in presence of [gamma33P]-ATP by HotSpot assay relative to control
[9] = target: Beta-adrenergic receptor kinase 1 (Homo sapiens) (UniProt P25098); assay: Inhibition of human ADRBK1 at 1 uM using casein as substrate in presence of [gamma33P]-ATP by HotSpot assay relative to control
[10] = target: Cyclin-dependent kinase 2/cyclin E1 (Homo sapiens) (UniProt P24864+P24941); assay: Inhibition of human CDK2/CyclinE at 1 uM using RB protein as substrate in presence of [gamma33P]-ATP by HotSpot assay relative to control; format: protein-complex assay
[11] = target: Cyclin-dependent kinase 4/cyclin D1 (Homo sapiens) (UniProt P11802+P24385); assay: Inhibition of human CDK4/CyclinD1 at 1 uM using RB protein as substrate in presence of [gamma33P]-ATP by HotSpot assay relative to control; format: protein-complex assay
[12] = target: Casein kinase II subunit alpha (Homo sapiens) (UniProt P68400); assay: Inhibition of human CK2a at 1 uM using RRRDDDSDDD as substrate in presence of [gamma33P]-ATP by HotSpot assay relative to control
[13] = target: Casein kinase II subunit alpha' (Homo sapiens) (UniProt P19784); assay: Inhibition of human CK2a2 at 1 uM using RRRDDDSDDD as substrate in presence of [gamma33P]-ATP by HotSpot assay relative to control
[14] = target: Casein kinase I isoform alpha (Homo sapiens) (UniProt P48729); assay: Inhibition of human CSNK1A1 at 1 uM using KRRRAL[pS]VASLPGL as substrate in presence of [gamma33P]-ATP by HotSpot assay relative to control
[15] = target: Homeodomain-interacting protein kinase 3 (Homo sapiens) (UniProt Q9H422); assay: Inhibition of human HIPK3 at 1 uM using MBP as substrate in presence of [gamma33P]-ATP by HotSpot assay relative to control
[16] = target: Homeodomain-interacting protein kinase 4 (Homo sapiens) (UniProt Q8NE63); assay: Inhibition of human HIPK4 at 1 uM using MBP as substrate in presence of [gamma33P]-ATP by HotSpot assay relative to control
[17] = target: Serine/threonine-protein kinase Nek3 (Homo sapiens) (UniProt P51956); assay: Inhibition of human NEK3 at 1 uM using MBP as substrate in presence of [gamma33P]-ATP by HotSpot assay relative to control
[18] = target: Serine/threonine-protein kinase Nek4 (Homo sapiens) (UniProt P51957); assay: Inhibition of human NEK4 at 1 uM using MBP as substrate in presence of [gamma33P]-ATP by HotSpot assay relative to control
[19] = system: Platelet-derived growth factor receptor alpha (Homo sapiens), P16234 [D842V]; assay: Inhibition of human PDGFRalpha D842V mutant at 1 uM using poly (Glu, Tyr)4:1 as substrate in presence of [gamma33P]-ATP by HotSpot assay relative to control
[20] = target: Serine/threonine-protein kinase PLK2 (Homo sapiens) (UniProt Q9NYY3); assay: Inhibition of human PLK2 at 1 uM using casein as substrate in presence of [gamma33P]-ATP by HotSpot assay relative to control
[21] = target: Ribosomal protein S6 kinase beta-2 (Homo sapiens) (UniProt Q9UBS0); assay: Inhibition of human RPS6KB2 at 1 uM using KKRNRTLTK as substrate in presence of [gamma33P]-ATP by HotSpot assay relative to control
[22] = target: SRSF protein kinase 3 (Homo sapiens) (UniProt Q9UPE1); assay: Inhibition of human SRPK3 at 1 uM using GRSRSRSRSR as substrate in presence of [gamma33P]-ATP by HotSpot assay relative to control
[23] = target: Serine/threonine-protein kinase WNK2 (Homo sapiens) (UniProt Q9Y3S1); assay: Inhibition of human WNK2 at 1 uM using MBP as substrate in presence of [gamma33P]-ATP by HotSpot assay relative to control
[24] = target: Tyrosine-protein kinase ZAP-70 (Homo sapiens) (UniProt P43403); assay: Inhibition of human ZAP70 at 1 uM using MBP as substrate in presence of [gamma33P]-ATP by HotSpot assay relative to control
[25] = target: Insulin-like growth factor 1 receptor (Homo sapiens, UniProt P08069)
Description: Inhibition of IGF-1R phosphorylation in IGF-1 stimulated human HepG2 cells preincubated with compound for 30 mins followed by IGF-1 stimulation for 10 mins by Immunoblot analysis

NCI-H838 = conditions: time 72 hrs
BaF3 = conditions: dose 50 mg/kg; route po; time 8 day
[26] = system: EML4-ALK (Homo sapiens), Q9UM73+Q9HC35 [G1269A]; conditions: BaF3, dose 500.0 nmol/L, time 3-5 weeks
[27] = system: EML4-ALK (Homo sapiens), Q9UM73+Q9HC35 [C1156Y]; conditions: BaF3, dose 500.0 nmol/L, time 3-5 weeks

Sequence of Tyrosine-protein kinase Fgr (P09769 whole entry): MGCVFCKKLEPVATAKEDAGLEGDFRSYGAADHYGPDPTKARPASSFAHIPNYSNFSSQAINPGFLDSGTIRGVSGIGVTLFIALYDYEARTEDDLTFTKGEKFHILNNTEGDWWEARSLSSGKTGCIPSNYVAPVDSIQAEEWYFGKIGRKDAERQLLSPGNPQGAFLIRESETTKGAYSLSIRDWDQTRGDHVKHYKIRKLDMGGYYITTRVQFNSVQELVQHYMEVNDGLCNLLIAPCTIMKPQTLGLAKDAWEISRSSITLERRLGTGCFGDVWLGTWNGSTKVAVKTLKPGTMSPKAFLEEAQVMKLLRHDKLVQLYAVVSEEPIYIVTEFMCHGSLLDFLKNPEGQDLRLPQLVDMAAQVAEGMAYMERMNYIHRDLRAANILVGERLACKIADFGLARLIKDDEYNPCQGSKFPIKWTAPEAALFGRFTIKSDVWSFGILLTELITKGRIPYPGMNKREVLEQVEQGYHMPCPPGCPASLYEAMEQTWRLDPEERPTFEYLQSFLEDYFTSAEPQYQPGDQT
Sequence of Homeodomain-interacting protein kinase 3 (Homo sapiens) (Q9H422 whole entry, looked up): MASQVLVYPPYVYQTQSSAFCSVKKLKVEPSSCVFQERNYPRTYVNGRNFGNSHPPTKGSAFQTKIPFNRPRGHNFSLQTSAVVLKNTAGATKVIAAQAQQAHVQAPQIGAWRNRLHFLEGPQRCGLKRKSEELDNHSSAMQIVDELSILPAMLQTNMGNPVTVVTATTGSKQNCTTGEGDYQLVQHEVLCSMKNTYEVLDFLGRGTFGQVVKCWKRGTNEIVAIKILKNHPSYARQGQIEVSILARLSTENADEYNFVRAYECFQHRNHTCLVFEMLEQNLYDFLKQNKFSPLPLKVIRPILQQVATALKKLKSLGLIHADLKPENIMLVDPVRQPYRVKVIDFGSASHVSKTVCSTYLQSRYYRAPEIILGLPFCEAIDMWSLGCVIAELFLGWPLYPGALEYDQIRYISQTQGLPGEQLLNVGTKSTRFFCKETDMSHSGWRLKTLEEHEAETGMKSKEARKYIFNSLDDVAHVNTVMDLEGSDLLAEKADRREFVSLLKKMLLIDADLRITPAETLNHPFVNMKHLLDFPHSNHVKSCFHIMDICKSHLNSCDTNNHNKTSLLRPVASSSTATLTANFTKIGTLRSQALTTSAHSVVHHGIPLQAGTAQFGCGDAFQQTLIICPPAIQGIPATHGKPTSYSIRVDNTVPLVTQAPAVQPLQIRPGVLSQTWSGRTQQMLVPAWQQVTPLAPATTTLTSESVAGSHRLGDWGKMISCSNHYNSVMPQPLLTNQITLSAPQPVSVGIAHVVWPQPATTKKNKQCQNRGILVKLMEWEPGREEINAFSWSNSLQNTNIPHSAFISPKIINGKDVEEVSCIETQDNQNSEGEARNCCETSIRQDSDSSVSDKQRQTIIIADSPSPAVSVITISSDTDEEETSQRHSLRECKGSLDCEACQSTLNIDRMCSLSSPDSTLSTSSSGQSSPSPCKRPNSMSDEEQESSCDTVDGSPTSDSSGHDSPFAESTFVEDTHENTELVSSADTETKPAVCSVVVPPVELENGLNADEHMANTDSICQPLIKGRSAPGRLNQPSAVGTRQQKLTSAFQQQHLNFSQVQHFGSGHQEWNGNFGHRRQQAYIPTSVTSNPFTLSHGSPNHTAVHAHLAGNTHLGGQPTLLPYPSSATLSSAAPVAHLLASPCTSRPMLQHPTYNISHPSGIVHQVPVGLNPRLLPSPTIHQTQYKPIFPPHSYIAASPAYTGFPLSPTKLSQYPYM
Sequence of cGMP-dependent protein kinase 1 (Q13976 whole entry): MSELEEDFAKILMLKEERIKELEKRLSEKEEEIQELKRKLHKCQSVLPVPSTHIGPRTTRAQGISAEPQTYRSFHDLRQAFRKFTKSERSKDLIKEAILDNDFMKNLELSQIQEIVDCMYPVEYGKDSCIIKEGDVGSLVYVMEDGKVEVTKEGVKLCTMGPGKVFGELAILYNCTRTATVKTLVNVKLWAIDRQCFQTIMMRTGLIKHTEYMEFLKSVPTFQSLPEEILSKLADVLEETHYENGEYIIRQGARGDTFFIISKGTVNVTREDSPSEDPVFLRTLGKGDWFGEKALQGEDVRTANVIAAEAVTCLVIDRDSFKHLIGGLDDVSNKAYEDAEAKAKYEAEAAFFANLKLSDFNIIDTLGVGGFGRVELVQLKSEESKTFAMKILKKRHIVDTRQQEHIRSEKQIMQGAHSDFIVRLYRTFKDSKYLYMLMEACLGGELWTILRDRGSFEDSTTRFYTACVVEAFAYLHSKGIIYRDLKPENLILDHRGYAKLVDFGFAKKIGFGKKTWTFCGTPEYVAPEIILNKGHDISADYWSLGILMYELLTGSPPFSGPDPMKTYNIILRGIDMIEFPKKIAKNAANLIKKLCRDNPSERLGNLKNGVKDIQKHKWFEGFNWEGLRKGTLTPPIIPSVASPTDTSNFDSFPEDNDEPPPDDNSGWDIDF
Sequence of Ribosomal protein S6 kinase beta-2 (Homo sapiens) (Q9UBS0 whole entry): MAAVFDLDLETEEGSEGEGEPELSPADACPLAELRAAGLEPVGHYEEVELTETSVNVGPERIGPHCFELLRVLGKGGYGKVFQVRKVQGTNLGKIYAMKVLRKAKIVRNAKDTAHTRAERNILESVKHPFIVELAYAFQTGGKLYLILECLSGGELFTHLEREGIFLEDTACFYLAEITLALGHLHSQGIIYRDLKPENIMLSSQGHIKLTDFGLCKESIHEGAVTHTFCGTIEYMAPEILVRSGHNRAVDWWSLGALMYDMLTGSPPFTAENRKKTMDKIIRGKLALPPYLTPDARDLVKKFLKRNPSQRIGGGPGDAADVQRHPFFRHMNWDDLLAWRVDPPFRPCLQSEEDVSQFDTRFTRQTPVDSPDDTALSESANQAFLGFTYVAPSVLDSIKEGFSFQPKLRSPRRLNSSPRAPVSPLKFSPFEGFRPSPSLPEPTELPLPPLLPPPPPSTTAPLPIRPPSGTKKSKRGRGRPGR
Sequence of Insulin-like growth factor 1 receptor (P08069 31-736 limits assumed): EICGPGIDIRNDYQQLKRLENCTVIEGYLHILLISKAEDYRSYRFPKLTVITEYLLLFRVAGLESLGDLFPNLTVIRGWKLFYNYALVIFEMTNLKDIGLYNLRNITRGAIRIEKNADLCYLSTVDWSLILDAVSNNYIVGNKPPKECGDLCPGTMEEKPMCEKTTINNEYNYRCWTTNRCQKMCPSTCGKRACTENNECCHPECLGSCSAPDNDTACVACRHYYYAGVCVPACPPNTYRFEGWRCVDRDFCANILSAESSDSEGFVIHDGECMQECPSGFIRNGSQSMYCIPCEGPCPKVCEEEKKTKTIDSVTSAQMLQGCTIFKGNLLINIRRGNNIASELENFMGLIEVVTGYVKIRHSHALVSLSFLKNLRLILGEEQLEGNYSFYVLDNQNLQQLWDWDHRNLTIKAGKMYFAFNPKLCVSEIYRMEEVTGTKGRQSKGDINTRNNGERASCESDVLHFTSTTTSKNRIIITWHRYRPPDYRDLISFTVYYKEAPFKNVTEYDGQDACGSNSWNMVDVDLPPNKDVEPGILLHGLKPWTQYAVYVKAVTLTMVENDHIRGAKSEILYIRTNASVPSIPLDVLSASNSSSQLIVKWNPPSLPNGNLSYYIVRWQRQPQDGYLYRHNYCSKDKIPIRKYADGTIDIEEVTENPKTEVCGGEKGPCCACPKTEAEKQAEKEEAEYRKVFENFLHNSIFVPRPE
Sequence of Insulin-like growth factor 1 receptor (P08069 741-1367 limits assumed): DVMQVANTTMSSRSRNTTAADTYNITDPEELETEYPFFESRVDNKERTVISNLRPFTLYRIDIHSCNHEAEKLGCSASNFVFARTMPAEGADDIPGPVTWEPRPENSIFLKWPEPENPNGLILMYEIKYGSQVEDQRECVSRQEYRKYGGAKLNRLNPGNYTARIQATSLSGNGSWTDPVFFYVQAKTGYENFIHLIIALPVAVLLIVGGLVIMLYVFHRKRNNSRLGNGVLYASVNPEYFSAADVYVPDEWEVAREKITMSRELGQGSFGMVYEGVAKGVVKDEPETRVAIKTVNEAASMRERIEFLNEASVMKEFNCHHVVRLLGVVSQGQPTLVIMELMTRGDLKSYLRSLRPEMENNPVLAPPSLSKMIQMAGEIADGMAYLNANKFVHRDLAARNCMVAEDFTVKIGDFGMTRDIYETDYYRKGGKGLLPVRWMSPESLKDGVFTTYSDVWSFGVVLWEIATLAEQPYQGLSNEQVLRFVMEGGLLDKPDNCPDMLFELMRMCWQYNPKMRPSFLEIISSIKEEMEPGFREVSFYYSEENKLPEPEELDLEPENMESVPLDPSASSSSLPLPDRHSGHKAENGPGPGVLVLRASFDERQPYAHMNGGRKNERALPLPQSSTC
Sequence of Casein kinase I isoform delta (Homo sapiens) (P48730 whole entry, looked up, canonical isoform): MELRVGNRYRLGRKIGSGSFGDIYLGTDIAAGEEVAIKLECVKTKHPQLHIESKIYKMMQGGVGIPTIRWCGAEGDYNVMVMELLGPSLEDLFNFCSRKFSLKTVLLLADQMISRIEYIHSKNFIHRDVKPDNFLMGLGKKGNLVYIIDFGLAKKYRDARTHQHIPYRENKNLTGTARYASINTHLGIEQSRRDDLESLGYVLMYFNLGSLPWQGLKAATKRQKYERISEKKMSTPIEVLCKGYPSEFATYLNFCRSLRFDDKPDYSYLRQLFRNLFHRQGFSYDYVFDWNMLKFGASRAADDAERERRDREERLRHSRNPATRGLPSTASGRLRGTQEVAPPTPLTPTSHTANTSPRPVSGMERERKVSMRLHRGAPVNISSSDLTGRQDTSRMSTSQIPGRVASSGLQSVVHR
Sequence of Casein kinase I isoform alpha (Homo sapiens) (P48729 2-337 limits assumed): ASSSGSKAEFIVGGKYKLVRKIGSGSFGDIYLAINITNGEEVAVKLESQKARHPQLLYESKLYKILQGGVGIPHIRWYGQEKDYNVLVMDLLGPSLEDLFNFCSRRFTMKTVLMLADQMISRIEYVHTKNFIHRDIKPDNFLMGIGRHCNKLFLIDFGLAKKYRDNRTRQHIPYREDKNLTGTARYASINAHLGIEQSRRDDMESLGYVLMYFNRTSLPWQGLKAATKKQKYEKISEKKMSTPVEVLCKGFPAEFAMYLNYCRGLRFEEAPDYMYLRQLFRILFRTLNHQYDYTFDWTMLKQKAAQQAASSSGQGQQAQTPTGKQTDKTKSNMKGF

`COc1cc(N2CCC(N3CCN(C)CC3)CC2)ccc1Nc1ncc(Cl)c(Nc2ccccc2P(C)(C)=O)n1` [BRIGATINIB] showed an inhibition [1] of under 90%, a pIC50 [2] of 8.19 and a pIC50 [3] of 7.06. For the same molecule, the pIC50 [4] was 6.47, the pIC50 [5] was 6.31 and the pIC50 [6] was 6.31. The pIC50 [7] was under 6.00, the inhibition [8] was under 90% and the inhibition [9] was under 90%. For the same molecule, the inhibition [10] was under 90%, the inhibition [11] was under 90% and the inhibition [12] was under 90%. The inhibition [13] was under 90%, the inhibition [14] was under 90% and the inhibition [15] was under 90%. The inhibition [16] was under 90%, the inhibition [17] was under 90% and the inhibition [18] was under 90%. The inhibition [19] was under 90%, the inhibition [20] was under 90% and the inhibition [21] was under 90%. For the same molecule, the inhibition [22] was under 90%, the inhibition [23] was under 90% and the inhibition [24] was under 90%. For the same molecule, the pIC50 [25] was 6.83, the GI50 (NCI-H838) was 503 nM and the TGI (BaF3) was 88%. The inhibition [26] was “Active” and the inhibition [27] was “Active”.
